From ChEMBL document CHEMBL1156829 (Proc Natl Acad Sci U S A, 2008) come the findings set out here.

Several values for one entry are separate records, joined by “and”; a condition that tells them apart may be missing. Equal entries are not always repeated.

For data set [1], the system named is Plasmodium falciparum. Kind of data set: NOVARTIS: Inhibition of Plasmodium falciparum 3D7 (drug-susceptible) proliferation in erythrocyte-based infection assay. The format is functional, organism-based.
The test system of data set [2] is Plasmodium falciparum. As to the kind of experiment: NOVARTIS: Inhibition of Plasmodium falciparum W2 (drug-resistant) proliferation in erythrocyte-based infection assay. The format is functional, organism-based. The settings on record: read-out: EC50.
Data set [3] deals with Huh-7. Kind of data set: NOVARTIS: Cytotoxicity against human hepatocellular carcinoma cell line (Huh7). Type of data set: toxicity, cell-based. The settings on record: huh-7, read-out: CC50.

The term EC50 denotes the concentration needed to bring the measured effect to its halfway point. By CC50 is commonly meant the concentration giving 50% cytotoxicity.

On to `CCN1/C(=C/c2ccc3ccccc3[n+]2CC)C=Cc2ccccc21`, for which the EC50 in data set [1] was 0.618 µM and 0.0658 µM; in data set [2], 0.544 µM and 0.189 µM. Moreover, the CC50 in data set [3] was > 10 µM and 36.8 µM.

Consider `CCN1/C(=C/c2sc3ccccc3[n+]2CC)Sc2ccccc21`, for which the EC50 in data set [1] was 0.557 µM; in data set [2], 0.248 µM. The CC50 in data set [3] was found to be 32.6 µM.

Regarding `CCN1/C(=C/c2ccc3ccccc3[n+]2CC)Sc2cc(NC(C)=O)ccc21` [listing 1 of 2 here], the EC50 was determined as 0.112 µM in data set [1] and 0.0708 µM in data set [2]. In addition, the CC50 in data set [3] is over 100 µM.

Turning to `CCN1/C(=C/c2cccc[n+]2C)C=Cc2ccccc21`, the EC50 is 0.401 µM in data set [1]; 0.667 µM in data set [1] (Plasmodium falciparum, 3D7); 0.522 µM in data set [2] (Plasmodium falciparum, W2); 0.572 µM in data set [2]. Also, in data set [3], the CC50 was over 64.5 µM.

`C[n+]1ccc(C=Cc2ccc(O)cc2)cc1`: the 50% effective concentration (EC50) in data set [1] came out at 0.303 µM; in data set [2] it was 0.175 µM. Besides, the CC50 in data set [3] was over 10 µM.

In the case of `CCN1/C(=C/c2ccc3ccccc3[n+]2CC)Sc2cc(NC(C)=O)ccc21` [listing 2 of 2 here], the EC50 in data set [1] was 0.93 µM; in data set [2] it was 0.714 µM. For the same compound, the CC50 in data set [3] was over 10 µM.

With `Cc1occc1C(=O)NN=C/C(Br)=C/c1ccccc1`, the EC50 is 1.37 µM and 0.206 µM in data set [1]; 0.593 µM in data set [2] (Plasmodium falciparum, W2); 0.502 µM in data set [2]. In addition, the CC50 in data set [3] was > 10 µM and 47.1 µM.

In the case of `CCN1/C(=C/c2cccc[n+]2C)Sc2ccc(C)cc21`, the EC50 in data set [1] is 0.487 µM and 1.35 µM; in data set [2], 0.545 µM and 2.28 µM. For the same compound, the CC50 in data set [3] is over 100 µM.

Turning to `CCN1/C(=C/c2cccc[n+]2C)C=Cc2cc(C)ccc21`, the EC50 in data set [1] came to 0.803 µM; in data set [1] (Plasmodium falciparum, 3D7), 0.425 µM; in data set [2] (Plasmodium falciparum, W2), 0.596 µM; in data set [2] it was 0.959 µM. For the same compound, the CC50 in data set [3] is over 100 µM.

With `CC[n+]1c(/C=C/N2CCCc3ccccc32)ccc2ccccc21`, the EC50 in data set [1] was determined as 0.103 µM; in data set [2], 0.245 µM. Further, the CC50 in data set [3] was over 9.97 µM.

With `CCN1C(=Cc2sc3cc(NC(C)=O)ccc3[n+]2CC)C=Cc2cc(C)ccc21`, the EC50 in data set [1] stood at 1.57 µM; in data set [2] (Plasmodium falciparum, W2), 0.568 µM. Moreover, the half-maximal cytotoxic concentration (CC50) in data set [3] was over 10 µM.

For the compound `CN1/C(=C/c2cccc[n+]2C)C=Cc2ccccc21`, the EC50 was found to be 0.557 µM in data set [1]; 0.446 µM in data set [1] (Plasmodium falciparum, 3D7); 0.526 µM in data set [2] (Plasmodium falciparum, W2); 0.779 µM in data set [2]. Besides, the 50% cytotoxic concentration (CC50) in data set [3] is over 100 µM.

As for `Cc1cccc(N=C2NC(=O)/C(=C\c3ccc(N(C)C)cc3)S2)c1`, the EC50 in data set [1] was 1.18 µM; in data set [1] (Plasmodium falciparum, 3D7) it was 0.784 µM; in data set [2] it was 1.64 µM and 0.508 µM. Also, in data set [3], the CC50 was over 100 µM.

For `CCN1/C(=C\C=C\c2n(CC)c3ccc(C#N)cc3[n+]2CC)Oc2ccc(-c3ccccc3)cc21` [listing 1 of 2 here], the values for the EC50 in data set [1] and in data set [2] were 3.85 µM and 6.06 µM, respectively. Further, in data set [3], the CC50 was over 100 µM.

In the case of `CCn1c(C=CN(C(C)=O)c2ccccc2)[n+](CC)c2cc(Cl)ccc21`, the concentration for a half-maximal effect (EC50) worked out at 2.59 µM in data set [1] and 1.57 µM in data set [2]. Also, in data set [3], the CC50 was over 100 µM.

Consider `C[n+]1c(C=CNc2ccccc2)n(-c2ccccc2)c2ccc(Cl)cc21`, for which the EC50 in data set [1] was found to be 0.534 µM; in data set [2] it was 0.318 µM. The CC50 in data set [3] is 23.8 µM.

`Cc1ccc(-n2c(C)cc(/C=C3\SC(=Nc4ccc(Cl)cc4)NC3=O)c2C)cc1`: the EC50 in data set [1] was 0.512 µM and 0.194 µM; in data set [2] (Plasmodium falciparum, W2) it was 0.611 µM; in data set [2] it was 0.629 µM. Also, the CC50 in data set [3] is over 100 µM.

On to `CC1=C(C=CC(C)C=NNC(=O)c2ccncc2)C(C)(C)CCC1` (stereo not drawn), for which the EC50 in data set [1] came out at 1.42 µM; in data set [1] (Plasmodium falciparum, 3D7), 0.896 µM; in data set [2] (Plasmodium falciparum, W2), 0.863 µM; in data set [2] it was 1.11 µM. The CC50 in data set [3] is over 100 µM.

Regarding `CC(C)c1ccc(/C=C2/SC(=Nc3ccccc3)NC2=O)cc1`, the EC50 in data set [1] is 1 µM and 0.479 µM; in data set [2] (Plasmodium falciparum, W2) it was 1.13 µM; in data set [2], 1.01 µM. For the same compound, the CC50 in data set [3] is over 100 µM.

Take `O=C1NC(=Nc2ccccc2)/C(=C/c2ccc(O)cc2)S1`: the 50% effective concentration (EC50) in data set [1] is 0.81 µM; in data set [1] (Plasmodium falciparum, 3D7) it was over 1.25 µM; in data set [2] (Plasmodium falciparum, W2), over 1.09 µM; in data set [2], 2.16 µM. Moreover, the CC50 in data set [3] was > 10 µM and 21 µM.

In the case of `CCN1C(=Cc2sc3ccccc3[n+]2C)C=Cc2cccc(C)c21`, the EC50 in data set [1] was determined as 0.0654 µM; in data set [2] it was 0.228 µM. Further, the CC50 in data set [3] worked out at 27.4 µM.

In the case of `C=CC[n+]1c(C=C2C=CC=CN2C)sc2ccccc21`, the 50% effective concentration (EC50) in data set [1] was 0.281 µM; in data set [2], 0.403 µM. For the same compound, the CC50 in data set [3] was over 100 µM.

`CCN1/C(=C\C=C\c2n(CC)c3ccc(C#N)cc3[n+]2CC)Oc2ccc(-c3ccccc3)cc21` [listing 2 of 2 here]: the EC50 in data set [1] is 0.61 µM; in data set [2] it was 1.06 µM. Also, the CC50 in data set [3] is over 10 µM.

`COc1ccc2c(ccc(/C=C3\C=CC=CN3C)[n+]2C)c1`: the EC50 in data set [1] was found to be 0.581 µM; in data set [1] (Plasmodium falciparum, 3D7), 0.316 µM; in data set [2] (Plasmodium falciparum, W2) it was 0.886 µM; in data set [2], 0.524 µM. The cytotoxic concentration (CC50) in data set [3] is over 100 µM.
